From patent US8858985B2, “Films comprising a liquid-absorbant inner layer, an antimicrobial material and an impermeable outer layer” (E I du Pont de Nemours and Company, priority 2004, dated 2014)

Legend:
[1] = test system: L. monocytogenes 15313; experiment: spot on lawn assay; format: cell-based; settings: 10-μl spots
From the text: For each antimicrobial solution concentration, a spot on lawn assay procedure was first conducted on agar plates to assess the efficacy of the solution to colony control. In this procedure, the TSA agar plates were inoculated with L. monocytogenes 15313 at a level of 10E+08 cfu/ml through an Autoplate 4000 model from Spiral Biotech. A volumetric pipette pump was then used to place three 10-μl spots of an antimicrobial solution onto appropriate regions of the test plate. Separately, another volumetric pipette pump was used to place 10 μl of a control solution (i.e., the solution in which the antimicrobial agent is dissolved). Three such agar plates were prepared for each concentration of antimicrobial solution. After spot placement, the plates were allowed to stand undisturbed for 10 to 30 minutes in a laminar flow hood before incubation at 37° C. for at least 24 hours. The resultant zones of inhibition were measured using a dial caliper (Brown and Sharpe, accuracy to 0.02 mm) with each zone measured twice on a 90° axis. Three such spots (for the antimicrobial treated solution) were so measured per plate, with three plates per condition to provide 18 such measurements. […] In the film on lawn procedure, 15 mm×15 mm films of example 1 and 2 were placed in freshly made up solutions for 12 to 24 hours at room temperature and then removed with a pair of flame-sterilized ocular forceps, allowed to drip dry, then placed for 60 seconds on a sterile Petri-dish before positioning on agar plates in a film on lawn assay procedure. The TSA agar plates had been prepared by inoculating with L. monocytogenes at a level of 10E+08 cfu/ml through an Autoplate 4000 model from Spiral Biotech. […] The resultant zones of inhibition were measured using a dial caliper (Brown and Sharpe, accuracy to 0.02 mm) with each zone measured twice on a 90° axis. Two such films (for the antimicrobial treated film) were so measured per plate, with three plates per condition to provide 12 such measurements. No zones of inhibition were recorded for the control films.

[2] = test system: L. monocytogenes; experiment: film on lawn assay; format: cell-based
Protocol: Films of Example 1 and Example 2 at 150μ in thickness were cut into 15 mm by 15 mm samples placed onto aluminum foil, and exposed to UV light in a laminar flow hood for 4 to 7 minutes. The samples were then transferred from foil to various solutions as described in Table 6 to soak for 12 to 24 hours at room temperature.
For each antimicrobial solution concentration, a spot on lawn assay procedure was first conducted on agar plates to assess the efficacy of the solution to colony control. In this procedure, the TSA agar plates were inoculated with L. monocytogenes 15313 at a level of 10E+08 cfu/ml through an Autoplate 4000 model from Spiral Biotech. A volumetric pipette pump was then used to place three 10-μl spots of an antimicrobial solution onto appropriate regions of the test plate. Separately, another volumetric pipette pump was used to place 10 μl of a control solution (i.e., the solution in which the antimicrobial agent is dissolved). Three such agar plates were prepared for each concentration of antimicrobial solution. After spot placement, the plates were allowed to stand undisturbed for 10 to 30 minutes in a laminar flow hood before incubation at 37° C. for at least 24 hours. The resultant zones of inhibition were measured using a dial caliper (Brown and Sharpe, accuracy to 0.02 mm) with each zone measured twice on a 90° axis. Three such spots (for the antimicrobial treated solution) were so measured per plate, with three plates per condition to provide 18 such measurements. […] In the film on lawn procedure, 15 mm×15 mm films of example 1 and 2 were placed in freshly made up solutions for 12 to 24 hours at room temperature and then removed with a pair of flame-sterilized ocular forceps, allowed to drip dry, then placed for 60 seconds on a sterile Petri-dish before positioning on agar plates in a film on lawn assay procedure. The TSA agar plates had been prepared by inoculating with L. monocytogenes at a level of 10E+08 cfu/ml through an Autoplate 4000 model from Spiral Biotech. Two such films were so placed on the prepared TSA agar plates. A third 15 mm×15 mm film was soaked under the same conditions in a control solution (the solution without the antimicrobial agent) and placed in a third region of the plate. Three such plates were prepared in this manner for each concentration of antimicrobial agent. After film placement, the plates were allowed to stand undisturbed for 10 to 30 minutes in a laminar flow hood before incubation at 37° C. for at least 24 hours. The resultant zones of inhibition were measured using a dial caliper (Brown and Sharpe, accuracy to 0.02 mm) with each zone measured twice on a 90° axis. Two such films (for the antimicrobial treated film) were so measured per plate, with three plates per condition to provide 12 such measurements. No zones of inhibition were recorded for the control films.

## O=C(O)c1ccccc1 [Benzoic acid]
[1]; 0.75 wt % in Ethanol/Water (36/63.25)
  Group averages of Inhibition Zones (mm), Spot on Lawn Assay: 7.31 ± 0.91 mm
[1]; 1.5 wt % in Ethanol/Water (36/62.5)
  Group averages of Inhibition Zones (mm), Spot on Lawn Assay: 7.70 ± 0.61 mm
[1]; 3.0 wt % in Ethanol/Water (36/61)
  Group averages of Inhibition Zones (mm), Spot on Lawn Assay: 8.64 ± 0.76 mm
[2]; 15 mm x 15 mm film of Example 1 soaked 12-24 h in 0.75 wt % in Ethanol/Water (36/63.25)
  Group averages of Inhibition Zones (mm), Film on Lawn Assay Example 1: 21.55 ± 0.77 mm
[2]; 15 mm x 15 mm film of Example 2 soaked 12-24 h in 0.75 wt % in Ethanol/Water (36/63.25)
  Group averages of Inhibition Zones (mm), Film on Lawn Assay Example 2: 23.49 ± 1.47 mm
[2]; film of Example 1 soaked in 1.5 wt % in Ethanol/Water (36/62.5)
  Group averages of Inhibition Zones (mm), Film on Lawn Assay Example 1: 25.92 ± 1.02 mm
[2]; film of Example 1 soaked in 3.0 wt % in Ethanol/Water (36/61)
  Group averages of Inhibition Zones (mm), Film on Lawn Assay Example 1: 25.76 ± 0.41 mm
[2]; film of Example 2 soaked in 1.5 wt % in Ethanol/Water (36/62.5)
  Group averages of Inhibition Zones (mm), Film on Lawn Assay Example 2: 27.85 ± 0.96 mm
[2]; film of Example 2 soaked in 3.0 wt % in Ethanol/Water (36/61)
  Group averages of Inhibition Zones (mm), Film on Lawn Assay Example 2: 27.6 ± 2.03 mm

## O=C(O)CC(O)(CC(=O)O)C(=O)O [Citric acid]
[2]; film of Example 1 soaked in 5 wt % in Water (95)
  Group averages of Inhibition Zones (mm), Film on Lawn Assay Example 1: Slight^3
[2]; film of Example 1 soaked in 7.5 wt % in Water (92.5)
  Group averages of Inhibition Zones (mm), Film on Lawn Assay Example 1: 19.21 ± 0.25 mm
[2]; film of Example 1 soaked in 10 wt % in Water (90)
  Group averages of Inhibition Zones (mm), Film on Lawn Assay Example 1: 21.00 ± 0.63 mm
[2]; film of Example 2 soaked in 5 wt % in Water (95)
  Group averages of Inhibition Zones (mm), Film on Lawn Assay Example 2: 0 mm
[2]; film of Example 2 soaked in 7.5 wt % in Water (92.5)
  Group averages of Inhibition Zones (mm), Film on Lawn Assay Example 2: 0 mm
[2]; film of Example 2 soaked in 10 wt % in Water (90)
  Group averages of Inhibition Zones (mm), Film on Lawn Assay Example 2: 0 mm
